Laboratory results taken from patent US20230060425A1, “FUSED BICYCLIC HETEROCYCLE DERIVATIVES AS PESTICIDES” (Bayer Aktiengesellschaft, priority 2019, published 2023).

Key:
Assay type in all cases: in vivo
Diabrotica balteata = Diabrotica balteata spray test; settings: 168 h, application rate 160 μg/cavity (μg/well), wheat grains, after 7 days, read-out: efficacy
Description: Diabrotica balteata—Spray Test
(§1) Solvent: • 78 parts by weight of acetone • 1.5 parts by weight of dimethylformamide
(§2) Emulsifier: alkylaryl polyglycol ether
(§3) To produce a suitable active compound preparation, 1 part by weight of active compound is dissolved using the stated parts by weight of solvent and made up with water containing an emulsifier concentration of 1000 ppm until the desired concentration is attained. To produce further test concentrations, the formulation is diluted with emulsifier-containing water.
Pre-swollen wheat grains (Triticum aestivum) are incubated in a multiwell plate filled with agar and a little water for one day (5 seed grains per well). The germinated wheat grains are sprayed with an active compound preparation of the desired concentration. Subsequently, each cavity is infected with 10-20 beetle larvae of Diabrotica balteata.
After 7 days, the efficacy in % is determined. 100% means that all wheat plants have grown as in the untreated, uninfected control; 0% means that no wheat plant has grown.

Myzus persicae [1] = assay: Myzus persicae oral test; settings: 120 h, application rate 4 ppm, after 5 days, read-out: efficacy
Description: Solvent: 100 parts by weight of acetone
To produce a suitable preparation of active compound, 1 part by weight of active compound is dissolved using the specified parts by weight of solvent and made up with water until the desired concentration is attained.
50 μl of the active compound preparation are transferred into microtitre plates and made up to a final volume of 200 μl with 150 μl of IPL41 insect medium (33%+15% sugar). Subsequently, the plates are sealed with parafilm, which a mixed population of green peach aphids (Myzus persicae) within a second microtitre plate is able to puncture and imbibe the solution through it.
(§4) After 5 days, the efficacy in % is determined. 100% means that all the aphids have been killed; 0% means that no aphids have been killed.

Spodoptera frugiperda = Spodoptera frugiperda spray test; settings: foliar, 168 h, application rate 100 g/ha, maize leaf discs, after 7 days, read-out: efficacy
Description: Spodoptera frugiperda—Spray Test
(§5) Solvent: • 78.0 parts by weight of acetone • 1.5 parts by weight of dimethylformamide
as §2
To produce further test concentrations, the formulation is diluted with emulsifier-containing water.
After 7 days, the efficacy in % is determined. 100% means that all the caterpillars have been killed; 0% means that no caterpillar has been killed.

Myzus persicae [2] = assay: Myzus persicae spray test; settings: foliar, 120 h, application rate 100 g/ha, Chinese cabbage leaf discs, after 5 days, read-out: efficacy
Description: Myzus persicae—Spray Test
as §1, §2, §3
Discs of Chinese cabbage leaves (Brassica pekinensis) infested by all stages of the green peach aphid (Myzus persicae) are sprayed with an active compound formulation of the desired concentration.
as §4

Phaedon cochleariae = Phaedon cochleariae spray test; settings: foliar, 168 h, application rate 100 g/ha, Chinese cabbage leaf discs, after 7 days, read-out: efficacy
Description: Phaedon cochleariae—Spray Test
as §5, §2, §3
Discs of Chinese cabbage leaves (Brassica pekinensis) are sprayed with an active compound formulation of the desired concentration and, after drying, populated with larvae of the mustard beetle (Phaedon cochleariae).
After 7 days, the efficacy in % is determined. 100% means that all the beetle larvae have been killed; 0% means that no beetle larvae have been killed.

Compound | pest or weed control at 160 µg/well (Diabrotica balteata) [%] | pest or weed control at 4 ppm (Myzus persicae [1]) [%] | pest or weed control at 100 g/ha (Spodoptera frugiperda) [%] | pest or weed control at 100 g/ha (Myzus persicae [2]) [%] | pest or weed control at 100 g/ha (Phaedon cochleariae) [%]
CCS(=O)(=O)c1c(-c2nc3cc(C(F)(F)C(F)(F)F)cnc3n2C)ncc2c(Cl)cccc12 [Example I-031] | 100 | 100 | 100 |  | 
CCS(=O)(=O)c1c(-c2nc3cc(C(F)(F)F)cnc3n2C)ncc2cc(OC)ccc12 [Example I-033] |  | 100 | 100 |  | 
CCS(=O)(=O)c1c(-c2nc3cc(C(F)(F)F)cnc3n2C)ncc2cc(NC(C)=O)ccc12 [Example I-035] |  | 100 |  | 90 | 100
CCS(=O)(=O)c1c(-c2nc3cc(C(F)(F)F)cnc3n2C)ncc2cc(NC(=O)C3CC3)ccc12 [Example I-038] |  | 100 | 100 |  | 100
CCS(=O)(=O)c1c(-c2nc3cc(C(F)(F)F)nnc3n2C)ncc2ccc(Cl)cc12 [Example I-039] | 100 | 100 | 100 |  | 
CCS(=O)(=O)c1c(-c2nc3cc(C(F)(F)C(F)(F)F)nnc3n2C)ncc2cc(Br)ccc12 [Example I-043] | 100 | 100 | 100 | 90 | 
CCS(=O)(=O)c1c(-c2nc3cc(C(F)(F)F)nnc3n2C)ncc2ccc(C)cc12 [Example I-044] | 100 | 100 |  | 90 | 
CCS(=O)(=O)c1c(-c2nc3cc(C(F)(F)F)nnc3n2C)ncc2ccc(C(F)(F)F)cc12 [Example I-045] | 100 | 100 | 100 | 100 | 
CCS(=O)(=O)c1c(-c2nc3cc(C(F)(F)C(F)(F)F)nnc3n2C)ncc2c(Br)cccc12 [Example I-046] | 100 | 100 | 100 |  | 
CCS(=O)(=O)c1c(-c2nc3cc(C(F)(F)C(F)(F)F)cnc3n2C)ncc2cc(OCC(F)(F)F)ccc12 [Example I-048] | 100 |  | 100 |  | 
CCS(=O)(=O)c1c(-c2nc3cc(C(F)(F)C(F)(F)F)cnc3n2C)ncc2cc(OCC(F)F)ccc12 [Example I-049] | 80 |  | 100 |  | 
CCS(=O)(=O)c1c(-c2nc3cc(C(F)(F)C(F)(F)F)cnc3n2C)ncc2cc(C3CC3)ccc12 [Example I-050] | 100 | 90 | 100 |  | 
CCS(=O)(=O)c1c(-c2nc3cc(C(F)(F)C(F)(F)F)nnc3n2C)ncc2cc(C#N)ccc12 [Example I-051] | 100 | 100 | 100 |  | 
CCS(=O)(=O)c1c(-c2nc3cc(C(F)(F)C(F)(F)F)nnc3n2C)ncc2c(Cl)cccc12 [Example I-052] | 100 | 100 | 100 |  | 
CCS(=O)(=O)c1c(-c2nc3cc(C(F)(F)C(F)(F)F)cnc3n2C)ncc2cc(OCC(C)(F)F)ccc12 [Example I-053] | 100 |  | 100 |  | 
